Results from patent US12077503B2, “Substituted cyclic amides and their use as herbicides” (FMC CORPORATION, priority 2015, dated 2024).

How the values were obtained:
Assay type in all cases: in vivo
[1] = tested on: giant foxtail (Setaria faberi); experiment: Test G Post-Emergence Protocol; conditions: Setaria faberi, post-emergence, 312 h, read-out: Foxtail, Giant damage rating; for pest or weed control at 15.625 g/ha: 15.625 g ai/ha, evaluated after 13 days (100=total damage to plant; 0=no damage to plant); for pest or weed control at 62.5 g/ha: 62.5 g ai/ha; for pest or weed control at 62.5 g/ha / pest or weed control at 250 g/ha: evaluated after 13 days, 100=total damage to plant, 0=no damage to plant; for pest or weed control at 250 g/ha: 250 g ai/ha
Summary of the method: (§1)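 Foliar application was made 8 days after sowing, using an aqueous spray of the active in acetone/water (50:50) with 0.5% Tween 20, at doses of 15.625, 62.5 or 250 g/ha. Injury was assessed 13 days later, where 100 meant the plant was fully damaged.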

[2] = tested on: corn (Zea mays); experiment: Test G Post-Emergence Protocol; conditions: Zea mays, post-emergence, 312 h, read-out: Corn damage rating; for plant injury at 15.625 g/ha: 15.625 g ai/ha, evaluated after 13 days (100=total damage to plant; 0=no damage to plant); for plant injury at 62.5 g/ha: 62.5 g ai/ha; for plant injury at 62.5 g/ha / plant injury at 250 g/ha: evaluated after 13 days, 100=total damage to plant, 0=no damage to plant; for plant injury at 250 g/ha: 250 g ai/ha
Summary of the method: as §1

[3] = tested on: velvetleaf (Abutilon theophrasti); experiment: Test G Post-Emergence Protocol; conditions: Abutilon theophrasti, post-emergence, 312 h, read-out: Velvetleaf damage rating; for pest or weed control at 15.625 g/ha: 15.625 g ai/ha, evaluated after 13 days (100=total damage to plant; 0=no damage to plant); for pest or weed control at 62.5 g/ha: 62.5 g ai/ha; for pest or weed control at 62.5 g/ha / pest or weed control at 250 g/ha: evaluated after 13 days, 100=total damage to plant, 0=no damage to plant; for pest or weed control at 250 g/ha: 250 g ai/ha
Summary of the method: as §1

[4] = tested on: redroot pigweed (Amaranthus retroflexus); experiment: Test G Post-Emergence Protocol; conditions: Amaranthus retroflexus, post-emergence, 312 h, read-out: Pigweed, Redroot damage rating; for pest or weed control at 15.625 g/ha: 15.625 g ai/ha, evaluated after 13 days (100=total damage to plant; 0=no damage to plant); for pest or weed control at 62.5 g/ha: 62.5 g ai/ha; for pest or weed control at 62.5 g/ha / pest or weed control at 250 g/ha: evaluated after 13 days, 100=total damage to plant, 0=no damage to plant; for pest or weed control at 250 g/ha: 250 g ai/ha
Summary of the method: as §1

[5] = tested on: ivy-leaved morning glory (Ipomoea hederacea); experiment: Test G Post-Emergence Protocol; conditions: Ipomoea, post-emergence, 312 h, read-out: Morningglory, Ivy-leaved damage rating; for pest or weed control at 15.625 g/ha: 15.625 g ai/ha, evaluated after 13 days (100=total damage to plant; 0=no damage to plant); for pest or weed control at 62.5 g/ha: 62.5 g ai/ha; for pest or weed control at 62.5 g/ha / pest or weed control at 250 g/ha: evaluated after 13 days, 100=total damage to plant, 0=no damage to plant; for pest or weed control at 250 g/ha: 250 g ai/ha
Summary of the method: as §1

[6] = tested on: barnyardgrass (Echinochloa crus-galli); experiment: Test G Post-Emergence Protocol; conditions: Echinochloa crus-galli, post-emergence, 312 h, read-out: Barnyardgrass damage rating; for pest or weed control at 15.625 g/ha: 15.625 g ai/ha, evaluated after 13 days (100=total damage to plant; 0=no damage to plant); for pest or weed control at 62.5 g/ha: 62.5 g ai/ha; for pest or weed control at 62.5 g/ha / pest or weed control at 250 g/ha: evaluated after 13 days, 100=total damage to plant, 0=no damage to plant; for pest or weed control at 250 g/ha: 250 g ai/ha
Summary of the method: as §1

[7] = tested on: giant foxtail (Setaria faberi); experiment: Test G Pre-Emergence Protocol; conditions: Setaria faberi, pre-emergence, 312 h, evaluated after 13 days; for pest or weed control at 15.625 g/ha: 15.625 g ai/ha; for pest or weed control at 15.625 g/ha / pest or weed control at 250 g/ha: read-out: Foxtail, Giant damage rating (100=total damage to plant; 0=no damage to plant); for pest or weed control at 62.5 g/ha: 62.5 g ai/ha, 100=total damage to plant, 0=no damage to plant, read-out: Foxtail, Giant damage rating; for pest or weed control at 250 g/ha: 250 g ai/ha
Summary of the method: (§2)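 Pre-emergence spray, 15.625/62.5/250 g/ha, vehicle acetone:water 50:50 + 0.5% Tween 20, applied 1 d after sowing. Glasshouse 24/16° C, 14 h light, 65% RH, watered twice daily. Visual damage rating at 13 d, 0–100 scale.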

[8] = tested on: corn (Zea mays); experiment: Test G Pre-Emergence Protocol; conditions: Zea mays, pre-emergence, 312 h, evaluated after 13 days; for plant injury at 15.625 g/ha: 15.625 g ai/ha; for plant injury at 15.625 g/ha / plant injury at 250 g/ha: read-out: Corn damage rating (100=total damage to plant; 0=no damage to plant); for plant injury at 62.5 g/ha: 62.5 g ai/ha, 100=total damage to plant, 0=no damage to plant, read-out: Corn damage rating; for plant injury at 250 g/ha: 250 g ai/ha
Summary of the method: as §2

[9] = tested on: velvetleaf (Abutilon theophrasti); experiment: Test G Pre-Emergence Protocol; conditions: Abutilon theophrasti, pre-emergence, 312 h, evaluated after 13 days; for pest or weed control at 15.625 g/ha: 15.625 g ai/ha; for pest or weed control at 15.625 g/ha / pest or weed control at 250 g/ha: read-out: Velvetleaf damage rating (100=total damage to plant; 0=no damage to plant); for pest or weed control at 62.5 g/ha: 62.5 g ai/ha, 100=total damage to plant, 0=no damage to plant, read-out: Velvetleaf damage rating; for pest or weed control at 250 g/ha: 250 g ai/ha
Summary of the method: as §2

[10] = tested on: redroot pigweed (Amaranthus retroflexus); experiment: Test G Pre-Emergence Protocol; conditions: Amaranthus retroflexus, pre-emergence, 312 h, evaluated after 13 days; for pest or weed control at 15.625 g/ha: 15.625 g ai/ha; for pest or weed control at 15.625 g/ha / pest or weed control at 250 g/ha: read-out: Pigweed, Redroot damage rating (100=total damage to plant; 0=no damage to plant); for pest or weed control at 62.5 g/ha: 62.5 g ai/ha, 100=total damage to plant, 0=no damage to plant, read-out: Pigweed, Redroot damage rating; for pest or weed control at 250 g/ha: 250 g ai/ha
Summary of the method: as §2

[11] = tested on: ivy-leaved morning glory (Ipomoea hederacea); experiment: Test G Pre-Emergence Protocol; conditions: Ipomoea, pre-emergence, 312 h, evaluated after 13 days; for pest or weed control at 15.625 g/ha: 15.625 g ai/ha; for pest or weed control at 15.625 g/ha / pest or weed control at 250 g/ha: read-out: Morningglory, Ivy-leaved damage rating (100=total damage to plant; 0=no damage to plant); for pest or weed control at 62.5 g/ha: 62.5 g ai/ha, 100=total damage to plant, 0=no damage to plant, read-out: Morningglory, Ivy-leaved damage rating; for pest or weed control at 250 g/ha: 250 g ai/ha
Summary of the method: as §2

[12] = tested on: barnyardgrass (Echinochloa crus-galli); experiment: Test G Pre-Emergence Protocol; conditions: Echinochloa crus-galli, pre-emergence, 312 h, evaluated after 13 days; for pest or weed control at 15.625 g/ha: 15.625 g ai/ha; for pest or weed control at 15.625 g/ha / pest or weed control at 250 g/ha: read-out: Barnyardgrass damage rating (100=total damage to plant; 0=no damage to plant); for pest or weed control at 62.5 g/ha: 62.5 g ai/ha, 100=total damage to plant, 0=no damage to plant, read-out: Barnyardgrass damage rating; for pest or weed control at 250 g/ha: 250 g ai/ha
Summary of the method: as §2

CN1C[C@H](c2cccc(C(F)(F)F)c2)[C@@H](C(=O)Nc2cccc(O)c2F)C1=O (racemic) [Compound 1806]
pest or weed control at 15.625 g/ha [1]: 0% | pest or weed control at 62.5 g/ha [1]: 60% | pest or weed control at 250 g/ha [1]: 60% | plant injury at 15.625 g/ha [2]: 0% | plant injury at 62.5 g/ha [2]: 0% | plant injury at 250 g/ha [2]: 40% | pest or weed control at 15.625 g/ha [3]: 0% | pest or weed control at 62.5 g/ha [3]: 0% | pest or weed control at 250 g/ha [3]: 0% | pest or weed control at 15.625 g/ha [4]: 0% | pest or weed control at 62.5 g/ha [4]: 0% | pest or weed control at 250 g/ha [4]: 0% | pest or weed control at 15.625 g/ha [5]: 0% | pest or weed control at 62.5 g/ha [5]: 0% | pest or weed control at 250 g/ha [5]: 0% | pest or weed control at 15.625 g/ha [6]: 0% | pest or weed control at 62.5 g/ha [6]: 20% | pest or weed control at 250 g/ha [6]: 50% | pest or weed control at 15.625 g/ha [7]: 20% | pest or weed control at 62.5 g/ha [7]: 20% | pest or weed control at 250 g/ha [7]: 30% | plant injury at 15.625 g/ha [8]: 0% | plant injury at 62.5 g/ha [8]: 0% | plant injury at 250 g/ha [8]: 0% | pest or weed control at 15.625 g/ha [9]: 0% | pest or weed control at 62.5 g/ha [9]: 0% | pest or weed control at 250 g/ha [9]: 0% | pest or weed control at 15.625 g/ha [10]: 0% | pest or weed control at 62.5 g/ha [10]: 0% | pest or weed control at 250 g/ha [10]: 10% | pest or weed control at 15.625 g/ha [11]: 0% | pest or weed control at 62.5 g/ha [11]: 0% | pest or weed control at 250 g/ha [11]: 0% | pest or weed control at 15.625 g/ha [12]: 0% | pest or weed control at 62.5 g/ha [12]: 10% | pest or weed control at 250 g/ha [12]: 20%

Cc1cc(F)ncc1NC(=O)[C@H]1C(=O)N(C)C[C@@H]1c1ccc(C(F)(F)F)cc1 (racemic) [Compound 1733]
pest or weed control at 15.625 g/ha [1]: 10% | pest or weed control at 62.5 g/ha [1]: 80% | pest or weed control at 250 g/ha [1]: 80% | plant injury at 15.625 g/ha [2]: 0% | plant injury at 62.5 g/ha [2]: 50% | plant injury at 250 g/ha [2]: 70% | pest or weed control at 15.625 g/ha [3]: 0% | pest or weed control at 62.5 g/ha [3]: 40% | pest or weed control at 250 g/ha [3]: 80% | pest or weed control at 15.625 g/ha [4]: 10% | pest or weed control at 62.5 g/ha [4]: 20% | pest or weed control at 250 g/ha [4]: 80% | pest or weed control at 15.625 g/ha [5]: 20% | pest or weed control at 62.5 g/ha [5]: 60% | pest or weed control at 250 g/ha [5]: 70% | pest or weed control at 15.625 g/ha [6]: 0% | pest or weed control at 62.5 g/ha [6]: 0% | pest or weed control at 250 g/ha [6]: 80% | pest or weed control at 15.625 g/ha [7]: 10% | pest or weed control at 62.5 g/ha [7]: 80% | pest or weed control at 250 g/ha [7]: 90% | plant injury at 15.625 g/ha [8]: 0% | plant injury at 62.5 g/ha [8]: 20% | plant injury at 250 g/ha [8]: 80% | pest or weed control at 15.625 g/ha [9]: 0% | pest or weed control at 62.5 g/ha [9]: 50% | pest or weed control at 250 g/ha [9]: 80% | pest or weed control at 15.625 g/ha [10]: 0% | pest or weed control at 62.5 g/ha [10]: 70% | pest or weed control at 250 g/ha [10]: 80% | pest or weed control at 15.625 g/ha [11]: 0% | pest or weed control at 62.5 g/ha [11]: 20% | pest or weed control at 250 g/ha [11]: 80% | pest or weed control at 15.625 g/ha [12]: 0% | pest or weed control at 62.5 g/ha [12]: 20% | pest or weed control at 250 g/ha [12]: 70%
